Measurements as given in PubChem BioAssay AID1996.
≈ marks a conversion by molar mass, not a printed value.

Details: buffer; pH 7.4; 200.0 µM

SMILES	solubility kinetic [µg/mL]
O=C(c1ccc(F)cc1)C1CCN(C(=O)c2c(F)cccc2F)CC1	> 52.1
Cc1nnc(NC(=O)CS(=O)(=O)Cc2ccccc2)s1	> 46.7
CCOc1ncccc1C(=O)OCC(=O)NC1CCCCC1	34.2 (≈ 112 µM)
Cc1cccc(/C(N)=N/OC(=O)c2ccoc2C)c1	38 (≈ 147 µM)
Cc1cccc(Oc2ccc3c(c2)cc(C(=O)O)n3C)c1	40.7 (≈ 145 µM)
CCCC/C=C1\CCc2c([nH]c3ccccc23)C1=O	2 (≈ 7.89 µM)
O=C(Nc1ccc(CN2CCOCC2)cc1)c1ccc(Cl)cc1Cl	19.9 (≈ 54.5 µM)
C/C(N)=C(/C#N)C(=O)COC(=O)c1cc2c(s1)CCC(C)C2 (stereo not given)	4.7 (≈ 14.8 µM)
O=C1N(Cc2cccc(Cl)c2)C[C@@H]2C[C@@H](c3ccccn3)N3CCC[C@@]123	39 (≈ 106 µM)
CC(=O)c1c(-c2ccccc2)c2ccccc2[nH]c1=O	15.1 (≈ 57.3 µM)
CC(C)(C)c1ccc(CCC2OCC(C[N+]3(C)CCOCC3)O2)cc1.[I-] (stereo not given)	> 71.3
CCN(CC(=O)Nc1c(F)cccc1F)C(=O)Cc1c[nH]c2ccccc12	> 55.7
Cc1ccc(C(C)C)c(OCC#CCN2CCCC2)c1.O=C(O)C(=O)O	25.7
COc1ccc(OCCC(=O)OCC(=O)NCCC2=CCCCC2)cc1	> 54.2
O=[N+]([O-])c1ccc(N2CCCCC2)nc1N1CCCCC1	5.3 (≈ 18.3 µM)
COC(=O)c1c(C)[nH]c(C=Nc2ccc(OC)cc2)c1C	30 (≈ 105 µM)
O=C(Cc1c(F)cccc1Cl)Nc1nccs1	30 (≈ 111 µM)
Nc1cc(N)nc(SCC(=O)NCc2ccc3c(c2)OCO3)n1	> 50
Cc1onc(-c2c(Cl)cccc2Cl)c1C(=O)N(C)Cc1ccccc1	40.9 (≈ 109 µM)
O=C(CNc1cccc([N+](=O)[O-])c1)NC(=O)NC1CCCCC1	30 (≈ 93.6 µM)
O=C1NC(=Nc2cccc([N+](=O)[O-])c2)SC1(CO)CO	41.2 (≈ 139 µM)
O=c1oc(Nc2ccccc2Cl)nc2ccccc12	7.9 (≈ 29 µM)

SMILES	solubility kinetic [µg/mL]
CCc1cc2c(CN(C)Cc3ccccc3F)cc(=O)oc2cc1O	9.5 (≈ 27.8 µM)
O=C(COC(=O)c1cccc(Br)c1)NCc1ccco1	19 (≈ 56.2 µM)
C/C(=N\Nc1ccc2nncn2n1)c1cccs1	> 38.7
Cc1c(C=O)c2ccccn2c1C(=O)c1ccccc1Cl	< 0.6
CCN(C(=O)COc1ccccc1)C1CCCCC1	37.4 (≈ 143 µM)
Cc1cc(C)c2c(CC(=O)NC3CCS(=O)(=O)C3)coc2c1 (stereo not given)	48.2 (≈ 150 µM)
O=C(CO/N=C/c1ccc(OC(F)F)cc1)NC1CCCC1	> 46.8
O=C(NCCN1CCOCC1)C1CC(=O)N(c2ccc(Cl)cc2)C1 (stereo not given)	> 52.8
CN(C)S(=O)(=O)c1ccc(Cl)c(C(=O)NC2=NCCS2)c1	> 52.2
O=S(=O)(/C=C/c1ccccc1)N1CCNCC1	> 37.8
CCCc1cc(C(=O)Nc2ccc(C(=O)OC)cc2)cs1	< 0.6
CC(C)C(=O)Nc1ccc(-c2nc3ncccc3o2)cc1	22.2 (≈ 78.9 µM)
Cc1ccc(F)c(NC(=O)c2cncn2-c2ccccc2)c1	41.2 (≈ 140 µM)
O=C(NCc1cccnc1)C(=O)Nc1ccc([N+](=O)[O-])cc1	3.7 (≈ 12.3 µM)
O=C(COC(=O)c1cc(=O)[nH]c2ccccc12)NCc1ccccc1Cl	4.1 (≈ 11.1 µM)
Cc1cc(C)nc(SCC(=O)Nc2nonc2N)n1	> 42
CCOc1cccc2sc(=NC(=O)c3ccco3)n(CC(=O)OC)c12	2 (≈ 5.55 µM)
CSc1ccccc1C(=O)NCc1cccnc1	> 38.8
O=C(C1CCCN(S(=O)(=O)c2ccc(Cl)cc2)C1)N1CCCC1 (stereo not given)	48.7 (≈ 136 µM)
Cc1ccccc1N1C(=O)C2CCCN2C1=S (stereo not given)	> 36.9
FC(F)(F)c1ccccc1NC1=NCCCS1	> 39
COc1ccc(C(=O)Nc2cc(C)on2)c(OC)c1	21.4 (≈ 81.6 µM)

SMILES	solubility kinetic [µg/mL]
COc1ccc2c(c1)CC/C(=C\Nc1ccc3c(c1)OCO3)C2=O	11.2 (≈ 34.6 µM)
COC(=O)c1ccc(C(=O)N(Cc2ccccc2)c2ccccc2)cc1	10.7 (≈ 31 µM)
CN1C(=O)NC(c2ccccc2[N+](=O)[O-])C2=C1CCCC2=O (stereo not given)	> 45.2
O=C(NCCc1ccccn1)c1ccc(OC(F)F)cc1	> 43.8
O=C(O)CC1(CC(=O)Nc2ccccc2Br)CCCC1	> 51
Cc1ccc2c(c1)N(CC(=O)NC1CCCC1)C(=O)CO2	> 43.3
Cc1ccc(CN(C)CC(=O)Nc2ccc3c(c2)CCC3)cc1	5.4 (≈ 17.5 µM)
COc1ccc2[nH]c(C(=O)N(C)c3ccc(F)cc3F)cc2c1	< 0.3
CCOc1cc(N2CCOCC2)c(OCC)cc1NC(=O)COC(=O)c1ccc(Cl)nc1	5.2 (≈ 11.2 µM)
O=C1ON=C(c2ccccc2)/C1=C/c1ccc(O)c(O)c1	> 42.2
CCOC(=O)C1CCCN(C(=O)c2ccc(Cl)cc2)C1 (stereo not given)	> 44.4
O=C(Nc1ccc2c(c1)OCCO2)c1cccc(Cl)c1Cl	35.5 (≈ 110 µM)
Cc1ccc(C(=O)N2CCN(c3ccc(C(F)(F)F)cn3)CC2)o1	19.8 (≈ 58.4 µM)
CC(C)(C)NC(=O)NCc1ccco1	> 29.4
CNC(=S)Nc1ccc([N+](=O)[O-])c(C)c1	32.3 (≈ 143 µM)
Cc1ccc(N2C(=O)CC(Sc3nc(C)cc(C)n3)C2=O)cc1 (stereo not given)	34.7 (≈ 106 µM)
COc1ccc(N(CC(=O)NC2CCCCC2)S(=O)(=O)c2cccs2)cc1	1.2 (≈ 2.94 µM)
Cc1cnc(C(=O)OCc2c(C)cc(C(C)(C)C)cc2C)cn1	9 (≈ 28.8 µM)
O=C(NCc1ccco1)/C(=C\c1ccco1)NC(=O)c1ccco1	47.3 (≈ 145 µM)
CC1CC(C)CN(c2ccc([N+](=O)[O-])nc2)C1 (stereo not given)	28.6 (≈ 122 µM)
O=S(=O)(c1cc(Br)c(Cl)s1)N1CCCC1	1 (≈ 3.02 µM)
COc1ccc(Cn2cc(F)c(=O)n(C)c2=O)cc1[N+](=O)[O-]	42.8 (≈ 138 µM)

SMILES	solubility kinetic [µg/mL]
O=C(NCc1ccc2c(c1)OCO2)c1ccccc1Cl	40.8 (≈ 141 µM)
CC1CN(C(=S)Nc2ccc(SC(F)F)cc2)CC(C)O1 (stereo not given)	> 49.9
O=C(NCc1cccnc1)Nc1ccc2c(c1)OCO2	> 40.7
CC1CN(C(=O)CS(=O)(=O)Cc2ccc(Cl)cc2)CC(C)O1 (stereo not given)	46.8 (≈ 135 µM)
O=C(CCC(=O)NC12CC3CC(CC(C3)C1)C2)NC1CCCCC1	17.2 (≈ 51.7 µM)
O=C(Nc1nccs1)c1ccc2ccccc2c1	1.3 (≈ 5.11 µM)
CC1(C)CC2CC(C)(CN2C(=O)COC(=O)c2cccnc2Cl)C1 (stereo not given)	> 52.6
Cc1cccc(-c2nc(C#N)c(NCc3ccco3)o2)c1	1.9 (≈ 6.8 µM)
Nc1nnc(SCC(=O)c2cccc([N+](=O)[O-])c2)s1	> 44.4
Cc1ccc(S(=O)(=O)NCCNc2ccccc2[N+](=O)[O-])cc1	1.1 (≈ 3.28 µM)
Cc1ccc(NC(=O)C(=O)NCCCN2CCCC2=O)c(C)c1	> 47.6
COc1ccc(NC(=O)CSc2nc(C)cs2)c([N+](=O)[O-])c1	45.1 (≈ 133 µM)
Cc1ccc(NC(=O)NCCN2CCCCC2)cc1	> 39.2
O=C(Nc1cc(S(=O)(=O)N2CCOCC2)ccc1N1CCOCC1)c1ccc([N+](=O)[O-])s1	6.1 (≈ 12.6 µM)
CCCc1nc2ccccc2c(C(=O)OCC(=O)NC2CC2)c1CC	> 51.1
N#Cc1cccnc1N1CCN(C(=O)c2cccs2)CC1	> 44.8
Cc1c(C)c2ccc(OCC(=O)N3CCN(Cc4ccccc4)CC3)cc2oc1=O.Cl	2.5
Nc1cc(=O)[nH]c(SCC(=O)Nc2cccnc2Cl)n1	> 46.8
CCOC(=O)CCSc1cc(C)c2ccccc2n1	4.3 (≈ 15.6 µM)
